Patent publication US7446199B2, “Compositions useful as inhibitors of protein kinases” (Vertex Pharmaceuticals Incorporated, priority 2003, dated 2008)

Biological target: T1, TAK1A-TAB fusion protein (Homo sapiens, UniProt O43318)
T1 construct: using 20 nM TAK1A-TAB fusion protein
T1 sequence (O43318 with tags, fused parts or gaps isoform O43318-2 limits assumed): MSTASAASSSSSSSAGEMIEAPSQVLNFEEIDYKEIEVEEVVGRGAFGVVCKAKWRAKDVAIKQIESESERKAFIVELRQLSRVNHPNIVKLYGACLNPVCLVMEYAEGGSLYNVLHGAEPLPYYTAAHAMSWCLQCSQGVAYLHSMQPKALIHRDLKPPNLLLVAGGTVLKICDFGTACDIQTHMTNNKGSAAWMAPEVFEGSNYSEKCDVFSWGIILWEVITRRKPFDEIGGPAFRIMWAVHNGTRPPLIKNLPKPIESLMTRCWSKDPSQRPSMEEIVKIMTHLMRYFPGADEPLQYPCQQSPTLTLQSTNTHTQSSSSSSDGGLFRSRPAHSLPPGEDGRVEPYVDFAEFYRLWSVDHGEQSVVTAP
Assay: TAK-1 inhibition assay, radiometric filter binding assay
Format: biochemical
Settings: 50 μM ATP, 12 μM bovine myelin basic protein, 20 nM TAK1A-TAB fusion protein
Experimental: Compounds were screened for their ability to inhibit TAK1A kinase activity using a radiometric filter binding assay. Reactions were carried out in a solution containing Buffer A (100 mM HEPES (pH 7.5), 10 mM MgCl2), 25 mM NaCl, 2 mM DTT, and 1.5% DMSO. Final substrate concentrations in the assay were 50 μM ATP (a mixture of unlabeled ATP (Sigma Chemicals, St Louis, Mo.) and ^33P-labeled ATP (PerkinElmer Life Sciences, Boston, Mass.) for a final specific activity of 50 Ci/mol), and 12 μM bovine myelin basic protein (MBP, Vertex Pharmaceuticals, Cambridge, Mass.). Reactions were carried out at ambient temperature (˜20° C.) using 20 nM TAK1A-TAB fusion protein. Under these conditions the extent of reaction is linear with time for a period of 2 hours.
A test compound of the present invention (1 μL in DMSO) was combined with ATP and Buffer A in a final volume of 47 μL in a 96 well plate. Typically, a 6 point titration was conducted by preparing serial dilutions (from 10 mM compound stocks) with DMSO of the test compounds of the present invention in daughter plates, for final concentrations spanning 0.046 μM to 3.73 μM. The reaction was initiated by the addition of 20 μl of an enzyme stock solution consisting of TAK1A-TAB fusion (described by Sugita, T. et al. in Biochem. Biophys. Res. Comm. 2002, 297, 1277-1281), MBP, Buffer A, NaCl, and DTT. The reaction was allowed to proceed for two hours at ambient temperature, then quenched with an equal volume of 10 mM unlabeled ATP in 10% trichloroacetic acid. A 110 μL aliquot of the quenched reaction was transferred to a Multiscreen PH filter plate (Millipore, Billerica, Mass.) and allowed to incubate at ambient temperature overnight (typically 16-20 hours). Following incubation the filter plates were washed with 3×150 μL aliquots of 5% trichloroacetic acid using a modified Biotek Elx405 plate washer. A 70 μL aliquot of Microscint 20 scintillation fluid (PerkinElmer) was added to each well, and the plate was then sealed and read on a TopCount NXT microplate scintillation counter (PerkinElmer). The Ki values were determined from the rate data as a function of inhibitor concentration.

Compound	Ki [nM]
Fc1cccc(-c2cnoc2-c2c[nH]c3ncc(C4=CCC(NCc5ccccc5)CC4)cc23)c1F (stereo not shown) [Compound 136, Benzyl-(4-{3-[4-(2,3-difluoro-phenyl)-isoxazol-5-yl]-1H-pyrrolo[2,3-b]pyridin-5-yl}-cyclohex-3-enyl)-amine]	< 200
CS(=O)(=O)NC1CC=C(c2cnc3[nH]cc(-c4oncc4-c4cccc(F)c4F)c3c2)CC1 (stereo not shown) [Compound 140, N-(4-{3-[4-(2,3-Difluoro-phenyl)-isoxazol-5-yl]-1H-pyrrolo[2,3-b]pyridin-5-yl}-cyclohex-3-enyl)-methanesulfonamide]	< 200
CCN1CCC(c2cnc3[nH]cc(-c4oncc4-c4cccc(F)c4F)c3c2)CC1 [Compound 72, 3-[4-(2,3-Difluoro-phenyl)-isoxazol-5-yl]-5-(1-ethyl-piperidin-4-yl)-1H-pyrrolo[2,3-b]pyridine]	1000 to 12500
CN(C)c1cccc(-c2cnc3[nH]cc(-c4oncc4-c4cccc(F)c4F)c3c2)c1 [Compound 61, (3-{3-[4-(2,3-Difluoro-phenyl)-isoxazol-5-yl]-1H-pyrrolo[2,3-b]pyridin-5-yl}-phenyl)-dimethyl-amine]	200 to 1000
Fc1ccc(-c2cnc3[nH]cc(-c4oncc4-c4cccc(F)c4F)c3c2)cn1 [Compound 69, 3-[4-(2,3-Difluoro-phenyl)-isoxazol-5-yl]-5-(6-fluoro-pyridin-3-yl)-1H-pyrrolo[2,3-b]pyridine]	200 to 1000
Fc1cccc(-n2cnnc2-c2c[nH]c3ncc(-c4ccc(N5CCC[C@H]5CN5CCCC5)nc4)cc23)c1F [Compound 115, 3-[4-(2,3-Difluoro-phenyl)-4H-[1,2,4]triazol-3-yl]-5-[6-(2-pyrrolidin-1-ylmethyl-pyrrolidin-1-yl)-pyridin-3-yl]-1H-pyrrolo[2,3-b]pyridine]	200 to 1000
CN(C)C(=O)c1ccc(-c2cnc3[nH]cc(-c4oncc4-c4cccc(F)c4F)c3c2)nc1 [Compound 79, 6-{3-[4-(2,3-Difluoro-phenyl)-isoxazol-5-yl]-1H-pyrrolo [2,3-b]pyridin-5-yl}-N,N-dimethyl-nicotinamide]	200 to 1000
Fc1cccc(-c2cnoc2-c2c[nH]c3ncc(-c4cnc5[nH]ccc5c4)cc23)c1F [Compound 77, 3-[4-(2,3-Difluoro-phenyl)-isoxazol-5-yl]-1H,1′H-[5,5′]bi[pyrrolo[2,3-b]pyridinyl]]	200 to 1000
NC1CC=C(c2cnc3[nH]cc(-c4oncc4-c4cccc(F)c4F)c3c2)CC1 (stereo not shown) [Compound 137, 4-{3-[4-(2,3-Difluoro-phenyl)-isoxazol-5-yl]-1H-pyrrolo [2,3-b]pyridin-5-yl}-cyclohex-3-enylamine]	< 200
CN(C)CC#Cc1cnc2[nH]cc(-c3oncc3-c3cccc(F)c3F)c2c1 [Compound 53, (3-{3-[4-(2,3-Difluoro-phenyl)-isoxazol-5-yl]-1H-pyrrolo[2,3-b]pyridin-5-yl}-prop-2-ynyl)-dimethyl-amine]	200 to 1000
CN(C)Cc1ccc(-c2cnc3[nH]cc(-c4oncc4-c4cccc(F)c4F)c3c2)nc1 [Compound 84, (6-{3-[4-(2,3-Difluoro-phenyl)-isoxazol-5-yl]-1H-pyrrolo[2,3-b]pyridin-5-yl}-pyridin-3-ylmethyl)-dimethyl-amine]	200 to 1000
COc1ccnc(-c2cnc3[nH]cc(-c4oncc4-c4cccc(F)c4F)c3c2)c1 [Compound 78, 3-[4-(2,3-Difluoro-phenyl)-isoxazol-5-yl]-5-(4-methoxy-pyridin-2-yl)-1H-pyrrolo[2,3-b]pyridine]	200 to 1000
CN(C)C1CC=C(c2cnc3[nH]cc(-c4oncc4-c4cccc(F)c4F)c3c2)CC1 (stereo not shown) [Compound 138, (4-{3-[4-(2,3-Difluoro-phenyl)-isoxazol-5-yl]-1H-pyrrolo[2,3-b]pyridin-5-yl}-cyclohex-3-enyl)-dimethyl-amine]	< 200
Fc1cccc(-c2cnoc2-c2c[nH]c3ncc(C4CCNCC4)cc23)c1F [Compound 62, 3-[4-(2,3-Difluoro-phenyl)-isoxazol-5-yl]-5-piperidin-4-yl-1H-pyrrolo[2,3-b]pyridine]	1000 to 12500
CS(=O)(=O)n1ccc2cc(-c3cnc4[nH]cc(-c5oncc5-c5cccc(F)c5F)c4c3)cnc21 [Compound 97, 3′-[4-(2,3-Difluoro-phenyl)-isoxazol-5-yl]-1-methanesulfonyl-1H, 1′H-[5,5′]bi[pyrrolo[2,3-b]pyridinyl]]	200 to 1000
CN1CCCN(c2ccc(-c3cnc4[nH]cc(-c5nncn5-c5cccc(F)c5F)c4c3)cn2)CC1 [Compound 117, 3-[4-(2,3-Difluoro-phenyl)-4H-[1,2,4]triazol-3-yl]-5-[6-(4-methyl-[1,4]diazepan-1-yl)-pyridin-3-yl]-1H-pyrrolo [2,3-b]-pyridine]	200 to 1000
Cc1noc(-c2c[nH]c3ncc(-c4ccc(N5CCN(C)CC5)cc4)cc23)c1-c1cccc(F)c1F [Compound 135, 3-[4-(2,3-Difluoro-phenyl)-3-methyl-isoxazol-5-yl]-5-[4-(4-methyl-piperazin-1-yl)-phenyl]-1H-pyrrolo[2,3-b]pyridine]	< 200
Fc1cccc(-c2cnoc2-c2c[nH]c3ncc(C4=CCC(N5CCOCC5)CC4)cc23)c1F (stereo not shown) [Compound 139, 3-[4-(2,3-Difluoro-phenyl)-isoxazol-5-yl]-5-(4-morpholin-4-yl-cyclohex-1-enyl)-1H-pyrrolo[2,3-b]pyridine]	200 to 1000
Fc1cccc(-c2cnoc2-c2c[nH]c3ncc(/C=C/n4cncn4)cc23)c1F [Compound 133, 3-[4-(2,3-Difluoro-phenyl)-isoxazol-5-yl]-5-(2-[1,2,4]triazol-1-yl-vinyl)-1H-pyrrolo[2,3-b]pyridine]	200 to 1000

Further lines, results first:

Ki [nM]	Compound
200 to 1000	Fc1cccc(-n2cnnc2-c2c[nH]c3ncc(-c4ccc(CN5CCOCC5)cc4)cc23)c1F [Compound 109, 3-[4-(2,3-Difluoro-phenyl)-4H-[1,2,4]triazol-3-yl]-5-(4-morpholin-4-ylmethyl-phenyl)-1H-pyrrolo[2,3-b]pyridine]
1000 to 12500	Fc1cccc(-n2cnnc2-c2c[nH]c3ncc(-c4ccncc4)cc23)c1F [Compound 114, 3-[4-(2,3-Difluoro-phenyl)-4H-[1,2,4]triazol-3-yl]-5-pyridin-4-yl-1H-pyrrolo[2,3-b]pyridine]
1000 to 12500	CN1CCN(c2ccc(-c3cnc4[nH]cc(-c5nncn5-c5cccc(F)c5F)c4c3)cn2)CC1 [Compound 112]
< 200	CN1CCN(c2ccc(-c3cnc4[nH]cc(-c5nncn5-c5cccc(F)c5F)c4c3)cc2)CC1 [Compound 110, 3-[4-(2,3-Difluoro-phenyl)-4H-[1,2,4]triazol-3-yl]-5-[4-(4-methyl-piperazin-1-yl)-phenyl]-1H-pyrrolo[2,3-b]pyridine]
1000 to 12500	Fc1cccc(-n2cnnc2-c2c[nH]c3ncc(-c4cccnc4)cc23)c1F [Compound 113, 3-[4-(2,3-Difluoro-phenyl)-4H-[1,2,4]triazol-3-yl]-5-pyridin-3-yl-1H-pyrrolo[2,3-b]pyridine]
1000 to 12500	CN(C)CCNc1ccc(-c2cnc3[nH]cc(-c4nncn4-c4cccc(F)c4F)c3c2)cn1 [Compound 119, N′-(5-{3-[4-(2,3-Difluoro-phenyl)-4H-[1,2,4]triazol-3-yl]-1H-pyrrolo[2,3-b]pyridin-5-yl}-pyridin-2-yl)-N,N-dimethyl-ethane-1,2-diamine]
200 to 1000	OC1CCN(c2ccc(-c3cnc4[nH]cc(-c5nncn5-c5cccc(F)c5F)c4c3)cn2)CC1 [Compound 116, 5′-{3-[4-(2,3-Difluoro-phenyl)-4H-[1,2,4]triazol-3-yl]-1H-pyrrolo[2,3-b]pyridin-5-yl}-3,4,5,6-tetrahydro-2H-[1,2′]bi-pyridinyl-4-ol]
200 to 1000	CN(C)c1ccc(-c2cnc3[nH]cc(-c4nncn4-c4cccc(F)c4F)c3c2)cc1 [Compound 106, (4-{3-[4-(2,3-Difluoro-phenyl)-4H-[1,2,4]triazol-3-yl]-1H-pyrrolo[2,3-b]pyridin-5-yl}-phenyl)-dimethyl-amine]
200 to 1000	Fc1cccc(-n2cnnc2-c2c[nH]c3ncc(-c4ccc(N5CCCC5)nc4)cc23)c1F [Compound 118, 3-[4-(2,3-Difluoro-phenyl)-4H-[1,2,4]triazol-3-yl]-5-(6-pyrrolidin-1-yl-pyridin-3-yl)-1H-pyrrolo[2,3-b]pyridine]
